According to paper PMC11904993, “Humanized Candida and NanoBiT Assays Expedite Discovery of Bdf1 Bromodomain Inhibitors With Antifungal Potential” (Advanced Science, 2025):
Several values for one entry are separate records, joined by “and”; a condition that tells them apart may be missing. Equal values may be shown once. Read-outs that look alike come from different tables or passages of the source.

Legend:
Bdf1/Swc4 = target: T1, Bdf1/Swc4 (Saccharomyces cerevisiae, UniProt P35817); test: NanoBiT assay, control pair; assay type: cell-based, S. cerevisiae; set-up: remaining activity: dose or concentration left out as unconfirmed
T1 construct: expressed in transfected cells; host or cells: S. cerevisiae
Experimental: (§1) Yeast strains were distributed in 96‐well microplates containing SC(MSG)‐U medium (SC‐U medium with 0.1% monosodium glutamate instead of ammonium sulfate as a nitrogen source) and grown at 30 °C. 40 µL of exponentially growing cells were transferred in white 96‐well half‐area microplates (ProxiPlate Plus, Greiner Bio‐One) previously filled with 40 µL per well of SC(MSG) containing 100 µM furimazine. The microplates were then incubated for 10 min in the dark before the luminescence signals were recorded using a microplate reader (Ensight, PerkinElmer). Luminescence measurements were performed for 1 s per well at a distance of 0.1 mm between the plate and the detector. The luminescence values were normalized with the optical density (OD600) of the corresponding cultures. For NanoBiT assays with BET inhibitors, yeast cultures were grown overnight at 30 °C in SC(MSG) medium in the presence of serial dilutions of 24c and I‐BET726. Overnight cultures were diluted 5 fold in SC(MSG) and incubated for 1 h before luminescence was recorded as previously indicated. Luminescence values for each condition were normalized using the average of the luminescence recorded for the Bdf1/Swc4 and Bmh1/Bmh2 controls.

[1] = system: C. glabrata expressing humanized Bdf1 (Brd4 BDs); test: Growth inhibition in liquid media, humanized C. glabrata strains; conditions: Fig 3D; 50 µM; humanized BDF1-flag; Exp 1-3
Experimental: Growth on Liquid Media with C. glabrata Lab Strains: Cells were grown at 30 °C in SC+M+C‐U medium (SC medium with 5 mM methionine, 0.25 mM cysteine, without uracil) to an OD600 of 0.5–0.8. […] Plates were incubated at 30 °C and OD600 was measured using a Multiskan FC Microplate Photometer (Thermo Fisher).

CgBdf1 BD1 = CgBdf1 BD1 (Candida glabrata, UniProt Q6FWV7); test: HTRF assay, inhibition of H4ac4 peptide binding; set-up: species or system C. glabrata; conditions: for %HTRF Signal Cg Bdf1 BD1: 240 min
CaBdf1 BD1 = target: T2, CaBdf1 BD1 (Candida albicans, UniProt Q5A4W8); test: HTRF assay, inhibition of H4ac4 peptide binding; set-up: species or system C. albicans
T2 construct: BD1 (residues 193–327) and BD2 (residues 361–501) from CaBdf1 (Uniprot ID Q5A4W8); made in house; host or cells: E. coli BL21(DE3)

human Brd4 BD1 = human Brd4 BD1 (Homo sapiens, UniProt O60885); test: HTRF assay, inhibition of H4ac4 peptide binding; conditions: for %HTRF Signal hBrd4 BD1: Fig 2E
CaBdf1 BD2 = target: T3, CaBdf1 BD2 (Candida albicans, UniProt Q5A4W8); test: HTRF assay, inhibition of H4ac4 peptide binding; set-up: species or system C. albicans
T3 construct: BD1 (residues 193–327) and BD2 (residues 361–501) from CaBdf1 (Uniprot ID Q5A4W8); made in house; host or cells: E. coli BL21(DE3)

[2] = target: T4, Bdf1‐SmBiT/H2A.Z‐LgBiT pair (Saccharomyces cerevisiae, UniProt P35817); test: NanoBiT assay; assay type: cell-based, S. cerevisiae; set-up: remaining activity: dose or concentration left out as unconfirmed
T4 construct: expressed in transfected cells; host or cells: S. cerevisiae (H2A.Z-LgBiT strain)
Experimental: as §1

T2 sequence (Q5A4W8 193-327): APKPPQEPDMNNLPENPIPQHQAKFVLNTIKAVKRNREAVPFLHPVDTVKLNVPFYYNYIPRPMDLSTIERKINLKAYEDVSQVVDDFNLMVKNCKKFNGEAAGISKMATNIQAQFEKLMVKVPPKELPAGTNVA
T3 sequence (Q5A4W8 361-501): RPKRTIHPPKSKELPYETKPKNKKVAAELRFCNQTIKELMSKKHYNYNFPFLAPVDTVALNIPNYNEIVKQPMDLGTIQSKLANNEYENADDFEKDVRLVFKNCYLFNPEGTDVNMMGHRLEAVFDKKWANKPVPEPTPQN
T4 sequence (P35817 whole entry): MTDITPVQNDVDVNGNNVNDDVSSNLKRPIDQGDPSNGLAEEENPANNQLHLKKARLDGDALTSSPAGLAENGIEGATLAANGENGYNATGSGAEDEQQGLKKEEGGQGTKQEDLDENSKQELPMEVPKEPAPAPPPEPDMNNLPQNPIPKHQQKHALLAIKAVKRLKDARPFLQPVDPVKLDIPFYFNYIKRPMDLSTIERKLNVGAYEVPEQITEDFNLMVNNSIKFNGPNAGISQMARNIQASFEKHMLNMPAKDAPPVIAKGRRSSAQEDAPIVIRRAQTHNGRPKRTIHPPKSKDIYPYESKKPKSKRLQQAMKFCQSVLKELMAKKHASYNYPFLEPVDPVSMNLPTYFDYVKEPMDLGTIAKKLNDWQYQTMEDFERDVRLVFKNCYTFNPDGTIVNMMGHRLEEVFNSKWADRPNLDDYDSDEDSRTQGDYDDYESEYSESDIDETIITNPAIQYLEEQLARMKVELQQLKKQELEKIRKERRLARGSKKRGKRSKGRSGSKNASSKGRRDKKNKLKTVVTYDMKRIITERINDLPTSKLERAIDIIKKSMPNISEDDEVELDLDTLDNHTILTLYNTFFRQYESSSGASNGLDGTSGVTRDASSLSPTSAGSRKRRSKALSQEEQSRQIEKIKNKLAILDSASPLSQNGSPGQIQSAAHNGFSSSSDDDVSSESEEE
T1 sequence (P35817 whole entry): as above
T1 sequence (P53201 whole entry, further chain): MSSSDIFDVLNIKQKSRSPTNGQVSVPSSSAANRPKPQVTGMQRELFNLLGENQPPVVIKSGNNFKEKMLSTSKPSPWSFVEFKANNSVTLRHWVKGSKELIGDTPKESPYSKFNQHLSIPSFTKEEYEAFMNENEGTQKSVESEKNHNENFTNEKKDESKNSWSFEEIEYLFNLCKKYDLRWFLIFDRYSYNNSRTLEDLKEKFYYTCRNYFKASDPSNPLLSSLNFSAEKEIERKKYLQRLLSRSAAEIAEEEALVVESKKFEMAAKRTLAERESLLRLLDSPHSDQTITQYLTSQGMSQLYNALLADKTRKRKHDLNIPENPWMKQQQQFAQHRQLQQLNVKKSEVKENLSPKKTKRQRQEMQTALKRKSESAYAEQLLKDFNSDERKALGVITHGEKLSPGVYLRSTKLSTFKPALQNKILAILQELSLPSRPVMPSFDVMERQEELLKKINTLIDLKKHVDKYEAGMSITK
Sequence of CgBdf1 BD1 (Q6FWV7 entry or part of it): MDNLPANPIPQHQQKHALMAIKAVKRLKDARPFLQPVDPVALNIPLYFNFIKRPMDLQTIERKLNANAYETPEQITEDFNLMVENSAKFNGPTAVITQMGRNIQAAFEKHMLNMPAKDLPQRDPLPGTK

## Cc1ccc(-c2nnc(C)c(NCc3ccc(C)o3)n2)cc1 [Compound 24c, 6‐methyl‐N‐((5‐methylfuran‐2‐yl)methyl)‐3‐(p‐tolyl)‐1,2,4‐triazin‐5‐amine]
Bdf1/Swc4; Bdf1-SmBiT, Swc4-LgBiT, 0.1953 mM, Fig 4C, read-out: Normalized nanoBiT signal
  remaining activity at 195.3 µM: 93%
Bdf1/Swc4; Bdf1-SmBiT, Swc4-LgBiT, 0.3906 mM, Fig 4C, read-out: Normalized nanoBiT signal
  remaining activity at 390.6 µM: 104%
Bdf1/Swc4; Bdf1-SmBiT, Swc4-LgBiT, 0.7813 mM, Fig 4C, read-out: Normalized nanoBiT signal
  remaining activity at 781.3 µM: 108%
Bdf1/Swc4; Bdf1-SmBiT, Swc4-LgBiT, 1.5625 mM, Fig 4C, read-out: Normalized nanoBiT signal
  remaining activity at 1562.5 µM: 100%
Bdf1/Swc4; Bdf1-SmBiT, Swc4-LgBiT, 3.1250 mM, Fig 4C, read-out: Normalized nanoBiT signal
  remaining activity at 3125 µM: 101%
Bdf1/Swc4; Bdf1-SmBiT, Swc4-LgBiT, […], Fig 4C, read-out: Normalized nanoBiT signal
  remaining activity: 96%
Bdf1/Swc4; control pair independent of Bdf1 BDs
  inhibition of NanoBiT signal, Bdf1/Swc4: not observed
[1]
  %Growth: 82.6% and 80.3% and 69.6%
CgBdf1 BD1; 4 h, Fig 2E, 0.002 microM, read-out: %HTRF Signal Cg Bdf1 BD1
  activity at 0.002 µM: 102%
CgBdf1 BD1; 4 h, Fig 2E, 0.005 microM, read-out: %HTRF Signal Cg Bdf1 BD1
  activity at 0.005 µM: 97.9%
CgBdf1 BD1; 4 h, Fig 2E, 0.013 microM, read-out: %HTRF Signal Cg Bdf1 BD1
  activity at 0.013 µM: 101%
CgBdf1 BD1; 4 h, Fig 2E, 0.033 microM, read-out: %HTRF Signal Cg Bdf1 BD1
  activity at 0.033 µM: 96.4%
CgBdf1 BD1; 4 h, Fig 2E, 0.082 microM, read-out: %HTRF Signal Cg Bdf1 BD1
  activity at 0.082 µM: 98%
CgBdf1 BD1; 4 h, Fig 2E, 0.205 microM, read-out: %HTRF Signal Cg Bdf1 BD1
  activity at 0.205 µM: 97.5%
CgBdf1 BD1; 4 h, Fig 2E, 0.512 microM, read-out: %HTRF Signal Cg Bdf1 BD1
  activity at 0.512 µM: 94.4%
CgBdf1 BD1; 4 h, Fig 2E, 1.280 microM, read-out: %HTRF Signal Cg Bdf1 BD1
  activity at 1.28 µM: 88.7%
CgBdf1 BD1; 4 h, Fig 2E, 3.200 microM, read-out: %HTRF Signal Cg Bdf1 BD1
  activity at 3.2 µM: 75%
CgBdf1 BD1; 4 h, Fig 2E, 8.000 microM, read-out: %HTRF Signal Cg Bdf1 BD1
  activity at 8 µM: 48.9%
CgBdf1 BD1; 4 h, Fig 2E, 20.000 microM, read-out: %HTRF Signal Cg Bdf1 BD1
  activity at 20 µM: 25.2%
CgBdf1 BD1; Fig 2C original data, analogs of 24, single experiments Exp1-3, read-out: pIC50 CgBD1 (converted)
  IC50: 8.28 µM and 7.31 µM and 9.27 µM
CgBdf1 BD1; Fig 2E, 0.002 microM
  %HTRF Signal Cg Bdf1 BD1: 102.33% and 103.65%
CgBdf1 BD1; Fig 2E, 0.005 microM
  %HTRF Signal Cg Bdf1 BD1: 104.91% and 102.28%
CgBdf1 BD1; Fig 2E, 0.013 microM
  %HTRF Signal Cg Bdf1 BD1: 100.44% and 101.24%
CgBdf1 BD1; Fig 2E, 0.033 microM
  %HTRF Signal Cg Bdf1 BD1: 102.26% and 102.17%
CgBdf1 BD1; Fig 2E, 0.082 microM
  %HTRF Signal Cg Bdf1 BD1: 100.01% and 99.64%
CgBdf1 BD1; Fig 2E, 0.205 microM
  %HTRF Signal Cg Bdf1 BD1: 100.01% and 98.57%
CgBdf1 BD1; Fig 2E, 0.512 microM
  %HTRF Signal Cg Bdf1 BD1: 94.98% and 94.31%
CgBdf1 BD1; Fig 2E, 1.280 microM, 1.28 µM
  %HTRF Signal Cg Bdf1 BD1: 89.76% and 89.41%
CgBdf1 BD1; Fig 2E, 3.200 microM, 3.2 µM
  %HTRF Signal Cg Bdf1 BD1: 77.27% and 82.10%
CgBdf1 BD1; Fig 2E, 8.000 microM
  %HTRF Signal Cg Bdf1 BD1: 45.31% and 53.86%
CgBdf1 BD1; Fig 2E, 20.000 microM
  %HTRF Signal Cg Bdf1 BD1: 17.43% and 18.98%
CgBdf1 BD1; Fig 2E, mean and s.d., three independent experiments, read-out: IC50 (μM) CgBD1
  IC50: 8.28 µM and 8 µM
CgBdf1 BD1; relative to 24, thiophenyl replaced by furyl or methylfuryl
  fold drop in CgBD1 inhibition: 4 fold
CaBdf1 BD1; CaBD1, 24c 0.013 microM, Exp1-2, read-out: Percent HTRF Signal
  remaining activity at 0.013 µM: 94%
CaBdf1 BD1; CaBD1, 24c 0.033 microM, Exp1-2, read-out: Percent HTRF Signal
  remaining activity at 0.033 µM: 100%
CaBdf1 BD1; CaBD1, 24c 0.082 microM, Exp1-2, read-out: Percent HTRF Signal
  remaining activity at 0.082 µM: 99.6%
CaBdf1 BD1; CaBD1, 24c 0.20 microM, Exp1-2, read-out: Percent HTRF Signal
  remaining activity at 0.2 µM: 102%
CaBdf1 BD1; CaBD1, 24c 0.51 microM, Exp1-2, read-out: Percent HTRF Signal
  remaining activity at […]: 96.9%
CaBdf1 BD1; CaBD1, 24c 1.28 microM, Exp1-2, read-out: Percent HTRF Signal
  remaining activity at 1.28 µM: 99%
CaBdf1 BD1; CaBD1, 24c 3.20 microM, Exp1-2, read-out: Percent HTRF Signal
  remaining activity at 3.2 µM: 90.4%
CaBdf1 BD1; CaBD1, 24c 8.00 microM, Exp1-2, read-out: Percent HTRF Signal
  remaining activity at 8 µM: 85.5%
CaBdf1 BD1; CaBD1, 24c 20.00 microM, Exp1-2, read-out: Percent HTRF Signal
  remaining activity at 20 µM: 73.3%
CaBdf1 BD1; HTRF, Fig S9C
  inhibition of Bdf1 BD1 from C. albicans: weakly inhibited
Human Brd4 BD1
  IC50: > 20 µM
Human Brd4 BD1; 0.002 microM
  %HTRF Signal hBrd4 BD1: 99.94% and 101.82% and 96.40%
Human Brd4 BD1; 0.005 microM
  %HTRF Signal hBrd4 BD1: 98.75% and 96.86% and 103.69%
Human Brd4 BD1; 0.013 microM
  %HTRF Signal hBrd4 BD1: 99.02% and 101.98% and 101.10%
Human Brd4 BD1; 0.033 microM
  %HTRF Signal hBrd4 BD1: 102.19% and 101.25% and 104.58%
Human Brd4 BD1; 0.082 microM
  %HTRF Signal hBrd4 BD1: 100.31% and 103.86% and 103.22%
Human Brd4 BD1; 0.205 microM
  %HTRF Signal hBrd4 BD1: 99.94% and 102.50% and 103.66%
Human Brd4 BD1; 0.512 microM
  %HTRF Signal hBrd4 BD1: 100.22% and 100.80% and 103.20%
Human Brd4 BD1; 1.280 microM
  %HTRF Signal hBrd4 BD1: 99.57% and 100.99% and 103.81%
Human Brd4 BD1; 3.200 microM
  %HTRF Signal hBrd4 BD1: 98.88% and 63.27% and 99.81%
Human Brd4 BD1; 8.000 microM
  %HTRF Signal hBrd4 BD1: 95.80% and 101.11% and 96.69%
Human Brd4 BD1; 20.000 microM
  %HTRF Signal hBrd4 BD1: 84.01% and 92.12% and 87.26%
CaBdf1 BD2; CaBD2, 24c 0.013 microM, Exp1-2, read-out: Percent HTRF Signal
  remaining activity at 0.013 µM: 94.3%
CaBdf1 BD2; CaBD2, 24c 0.033 microM, Exp1-2, read-out: Percent HTRF Signal
  remaining activity at 0.033 µM: 96.5%
CaBdf1 BD2; CaBD2, 24c 0.082 microM, Exp1-2, read-out: Percent HTRF Signal
  remaining activity at 0.082 µM: 102%
CaBdf1 BD2; CaBD2, 24c 0.20 microM, Exp1-2, read-out: Percent HTRF Signal
  remaining activity at 0.2 µM: 102%
CaBdf1 BD2; CaBD2, 24c 0.51 microM, Exp1-2, read-out: Percent HTRF Signal
  remaining activity at […]: 97.5%
CaBdf1 BD2; CaBD2, 24c 1.28 microM, Exp1-2, read-out: Percent HTRF Signal
  remaining activity at 1.28 µM: 98.1%
CaBdf1 BD2; CaBD2, 24c 3.20 microM, Exp1-2, read-out: Percent HTRF Signal
  remaining activity at 3.2 µM: 92.6%
CaBdf1 BD2; CaBD2, 24c 8.00 microM, Exp1-2, read-out: Percent HTRF Signal
  remaining activity at 8 µM: 90.1%
CaBdf1 BD2; CaBD2, 24c 20.00 microM, Exp1-2, read-out: Percent HTRF Signal
  remaining activity at 20 µM: 74.1%
CaBdf1 BD2; HTRF, Fig S9C
  inhibition of Bdf1 BD2 from C. albicans: weakly inhibited
[2]; Bdf1-SmBiT, Htz1-LgBiT, 0.1953 mM, Fig 4C, read-out: Normalized nanoBiT signal
  remaining activity at 195.3 µM: 99%
[2]; Bdf1-SmBiT, Htz1-LgBiT, 0.3906 mM, Fig 4C, read-out: Normalized nanoBiT signal
  remaining activity at 390.6 µM: 98%
[2]; Bdf1-SmBiT, Htz1-LgBiT, 0.7813 mM, Fig 4C, read-out: Normalized nanoBiT signal
  remaining activity at 781.3 µM: 99%
[2]; Bdf1-SmBiT, Htz1-LgBiT, 3.1250 mM, Fig 4C, read-out: Normalized nanoBiT signal
  remaining activity at 3125 µM: 98%
[2]; Bdf1-SmBiT, Htz1-LgBiT, […], Fig 4C, read-out: Normalized nanoBiT signal
  remaining activity: 85%
[2]; mean and s.d., 4 independent experiments, read-out: IC50 (μM) (ScBdf1 / H2A.Z) NanoBiT signal
  IC50: 65 µM
